pEC50: −log10 of the molar value.
Key:
Type in all cases: functional, cell-based
[1] = biological target: T1, 5-hydroxytryptamine receptor 2A (Homo sapiens, UniProt P28223); assay: Agonist activity at human 5HT2A receptor stably expressed in Flp-In-T-REx-293 cells assessed as increase in Gq-mediated calcium flux by Fluo-4 direct dye based FLIPR Tetra assay
[2] = biological target: T1, 5-hydroxytryptamine receptor 2A; assay: Agonist activity at human 5HT2A receptor stably expressed in Flp-In-T-REx-293 cells assessed as maximal Gq-mediated calcium flux by Fluo-4 direct dye based FLIPR Tetra assay relative to control
[3] = biological target: T2, 5-hydroxytryptamine receptor 2C (Homo sapiens) (UniProt P28335); assay: Agonist activity at human 5HT2C receptor stably expressed in Flp-In-T-REx-293 cells assessed as maximal Gq-mediated calcium flux by Fluo-4 direct dye based FLIPR Tetra assay relative to control
T2 sequence (whole entry): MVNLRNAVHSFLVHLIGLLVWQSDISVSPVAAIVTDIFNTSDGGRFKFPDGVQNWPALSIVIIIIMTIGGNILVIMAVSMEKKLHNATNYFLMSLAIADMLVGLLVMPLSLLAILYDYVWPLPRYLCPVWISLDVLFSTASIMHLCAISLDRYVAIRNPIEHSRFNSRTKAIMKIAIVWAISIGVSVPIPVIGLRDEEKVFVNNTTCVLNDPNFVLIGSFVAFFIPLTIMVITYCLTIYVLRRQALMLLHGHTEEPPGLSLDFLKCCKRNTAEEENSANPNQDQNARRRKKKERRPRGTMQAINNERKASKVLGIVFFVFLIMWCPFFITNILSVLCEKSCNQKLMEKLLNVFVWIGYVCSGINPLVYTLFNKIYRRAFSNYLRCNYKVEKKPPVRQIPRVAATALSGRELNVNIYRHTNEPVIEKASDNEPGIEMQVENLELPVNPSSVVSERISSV

[4] = biological target: T3, 5-hydroxytryptamine receptor 2C (Homo sapiens, UniProt P28335); assay: Agonist activity at human 5HT2C receptor stably expressed in Flp-In-T-REx-293 cells assessed as increase in Gq-mediated calcium flux by Fluo-4 direct dye based FLIPR Tetra assay; conditions: for pEC50: read-out: EC50; for EC50: read-out: pEC50 (converted)
T3 sequence (P28335 whole entry): T2 sequence (whole entry)

T1 sequence (P28223 whole entry): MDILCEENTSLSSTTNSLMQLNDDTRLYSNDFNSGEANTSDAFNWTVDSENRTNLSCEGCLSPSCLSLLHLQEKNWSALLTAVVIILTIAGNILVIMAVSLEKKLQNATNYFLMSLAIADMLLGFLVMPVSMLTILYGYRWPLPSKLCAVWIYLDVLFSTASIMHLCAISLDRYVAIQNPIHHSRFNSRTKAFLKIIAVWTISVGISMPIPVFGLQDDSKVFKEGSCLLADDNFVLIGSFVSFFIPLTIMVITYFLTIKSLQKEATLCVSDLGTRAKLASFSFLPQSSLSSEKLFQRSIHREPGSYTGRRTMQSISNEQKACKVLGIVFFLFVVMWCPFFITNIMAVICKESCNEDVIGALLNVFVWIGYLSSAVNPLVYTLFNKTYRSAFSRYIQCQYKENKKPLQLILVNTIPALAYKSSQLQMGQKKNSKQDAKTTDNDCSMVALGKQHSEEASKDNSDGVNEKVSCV

Row | Compound | pEC50 [1] | Emax ([2]; filed as agonist) [%] | Emax ([3]; filed as agonist) [%] | pEC50 [4] | EC50 [4] [nM] | Emax [2] [%] | Emax [3] [%]
1 | Cc1ccc(C2NCCc3c2[nH]c2ccc(Cl)cc32)cc1 (stereo not given) | 6.52 | 94.1 | 97.2 | 7.20 |  |  | 
2 | Oc1ccccc1C1NCCc2c1[nH]c1ccc(F)cc21 (stereo not given) | 7.59 | 96.2 | 100 | 8.37 |  |  | 
3 | Clc1ccc2[nH]c3c(c2c1)CCNC3c1ccccc1Br (stereo not given) | 6.39 | 91.4 | 98.4 | 7.02 |  |  | 
4 | Clc1ccc2[nH]c3c(c2c1)CCNC3CCc1ccccc1 (stereo not given) | 7.19 | 101 | 98.5 | 7.80 |  |  | 
5 | Oc1ccc2[nH]c3c(c2c1)CCNC3CCc1ccccc1 (stereo not given) | 6.86 | 45.8 |  |  |  |  | 
6 | Oc1ccc(C2NCCc3c2[nH]c2ccc(F)cc32)cc1 (stereo not given) | 7.24 | 99.9 | 104 | 7.53 | 30.2 |  | 
7 | Fc1ccc2[nH]c3c(c2c1)CCNC3CCc1ccccc1 (stereo not given) | 6.09 |  | 91.3 | 6.33 |  | 31.7 | 
8 | Fc1ncccc1C1NCCc2c1[nH]c1ccc(Cl)cc21 (stereo not given) | 6.46 | 56.1 | 75.2 | 5.97 |  |  | 
9 | Cc1ccc(C2NCCc3c2[nH]c2ccc(O)cc32)cc1 (stereo not given) | 6.51 |  | 95 | 5.95 |  | 11.2 | 
10 | Oc1ccc2[nH]c3c(c2c1)CCNC3c1ccccc1 (stereo not given) | 5.60 |  |  |  |  | 26.3 | 
11 | CCC1NCCc2c1[nH]c1ccc(Cl)cc21 (stereo not given) | 6.40 | 74.3 | 80.8 | 5.10 |  |  | 
12 | Oc1c(Br)cccc1C1NCCc2c1[nH]c1ccc(Cl)cc21 (stereo not given) | 7.13 | 97.9 | 107 | 7.16 |  |  | 
13 | COc1ccc(C2NCCc3c2[nH]c2ccc(O)cc32)c(O)c1 (stereo not given) | 9.30 | 103 | 114 | 9.10 |  |  | 
14 | COc1ccccc1C1NCCc2c1[nH]c1ccc(F)cc21 (stereo not given) | 6.90 | 43.1 | 94.3 | 7.12 |  |  | 
15 | Clc1ccc2[nH]c3c(c2c1)CCNC3c1ccccc1 (stereo not given) | 6.61 | 83.9 | 98 | 7.16 |  |  | 
16 | Cc1cccc(C2NCCc3c2[nH]c2ccc(Cl)cc32)c1 (stereo not given) | 6.32 | 63.1 | 89.1 | 6.59 |  |  | 
17 | Oc1ccc2[nH]c3c(c2c1)CCNC3c1cc(Cl)ccc1O (stereo not given) | 5.80 | 47.6 | 97.1 | 6.12 |  |  | 
18 | CCCC1NCCc2c1[nH]c1ccc(Cl)cc21 (stereo not given) | 6.19 | 50.1 |  | < 5.00 |  |  | 
19 | CCC1NCCc2c1[nH]c1ccc(F)cc21 (stereo not given) | 6.22 | 75.4 | 96.2 | 6.70 |  |  | 
20 | Oc1ccc2[nH]c3c(c2c1)CCNC3c1cc(Br)ccc1O (stereo not given) | 6.34 | 85.9 | 104 | 6.71 |  |  | 
21 | Clc1ccc2[nH]c3c(c2c1)CCNC3c1ccc(Cl)s1 (stereo not given) | 6.75 | 100 | 117 | 7.36 |  |  | 
22 | Cc1noc(C)c1C1NCCc2c1[nH]c1ccc(Cl)cc21 (stereo not given) | 6.29 | 84.5 | 104 | 6.72 |  |  | 
23 | Clc1ccc2[nH]c3c(c2c1)CCNC3c1ccc(Br)s1 (stereo not given) | 6.04 | 62.4 | 104 | 6.35 |  |  | 
24 | Clc1ccc2[nH]c3c(c2c1)CCNC3c1ccncc1Cl (stereo not given) | 6.07 | 57.1 |  | 5.55 |  |  | 27.3

Row | Compound | pEC50 [1] | Emax ([2]; filed as agonist) [%] | Emax ([3]; filed as agonist) [%] | pEC50 [4] | EC50 [4] [nM] | Emax [2] [%] | Emax [3] [%]
25 | Oc1ccc2[nH]c3c(c2c1)CCNC3c1cc(F)ccc1O (stereo not given) | 6.67 | 88.4 | 101 | 7.11 |  |  | 
26 | Oc1ccc2[nH]c3c(c2c1)CCNC3c1ccc(Br)cc1O (stereo not given) | 6.44 | 67.8 | 100 | 6.76 |  |  | 
27 | COc1ccc2cc(C3NCCc4c3[nH]c3ccc(F)cc43)ccc2c1 (stereo not given) | 5.55 |  | 76.3 | 5.47 |  | 30.5 | 
28 | Fc1ccc2[nH]c3c(c2c1)CCNC3c1ccccc1F (stereo not given) | 6.52 | 48.9 | 81 | 6.00 |  |  | 
29 | Fc1ccc2[nH]c3c(c2c1)CCNC3c1cccnc1F (stereo not given) | 6.41 | 40.9 |  | 5.40 |  |  | 30.2
30 | Cc1cccc(C2NCCc3c2[nH]c2ccc(O)cc32)c1 (stereo not given) | 6.61 | 60.9 | 99.1 | 6.72 |  |  | 
31 | Cn1ccnc1C1NCCc2c1[nH]c1ccc(O)cc21 (stereo not given) | 7.10 | 100 | 87.1 | 7.01 |  |  | 
32 | Clc1ccc2[nH]c3c(c2c1)CCNC3Cc1ccccc1 (stereo not given) | 5.58 | 56.1 |  |  |  |  | 
33 | Fc1ccc2[nH]c3c(c2c1)CCNC3C(c1ccccc1)c1ccccc1 (stereo not given) | 5.72 | 92.5 | 103 | 6.02 |  |  | 
34 | Clc1ccc2[nH]c3c(c2c1)CCNC3C1CCOCC1 (stereo not given) | 6.43 | 42.8 | 63.8 | 6.53 |  |  | 
35 | Oc1ccc2[nH]c3c(c2c1)CCNC3c1ccccc1C(F)(F)F (stereo not given) | 6.92 | 100 | 100 | 7.12 |  |  | 
36 | Clc1ccc2[nH]c3c(c2c1)CCNC3C(c1ccccc1)c1ccccc1 (stereo not given) | 5.87 | 88.1 | 106 | 5.49 | 0.324 |  | 
37 | Clc1ccc2[nH]c3c(c2c1)CCNC3C1CCCCC1 (stereo not given) | 6.53 | 59.9 | 98.5 | 7.02 |  |  | 
38 | COc1ccccc1C1NCCc2c1[nH]c1ccc(O)cc21 (stereo not given) | 6.57 |  |  |  |  | 21.5 | 
39 | Clc1ccc2[nH]c3c(c2c1)CCNC3c1ccc2ccccc2c1 (stereo not given) | 7.82 | 96.5 | 102 | 7.61 |  |  | 
40 | CCC1NCCc2c1[nH]c1ccc(O)cc21 (stereo not given) | 6.71 | 85.1 | 97.6 | 7.21 |  |  | 
41 | COc1ccccc1C1NCCc2c1[nH]c1ccc(Cl)cc21 (stereo not given) | 6.68 | 41.6 | 82.9 | 6.55 |  |  | 
42 | NCCc1c[nH]c2ccc(O)cc12 |  | 100 |  |  |  |  | 
43 | Fc1ccc2[nH]c3c(c2c1)CCNC3c1cncnc1 (stereo not given) |  | 95.1 | 101 |  |  |  | 
44 | CCCC1NCCc2c1[nH]c1ccc(F)cc21 (stereo not given) | < 5.00 |  |  | < 5.00 |  |  | 
45 | Fc1ccc2[nH]c3c(c2c1)CCNC3Cc1ccccc1 (stereo not given) | 5.88 | 44.4 |  |  |  |  | 
46 | Oc1ccc2[nH]c3c(c2c1)CCNC3c1ccccc1O (stereo not given) |  |  | 103 |  |  | 26.9 | 
47 | Oc1ccc2[nH]c3c(c2c1)CCNC3c1ccccc1Cl (stereo not given) | 5.85 |  |  |  |  | 14.3 | 
48 | Fc1ccc2[nH]c3c(c2c1)CCNC3c1nccs1 (stereo not given) |  |  |  | 5.90 |  |  | 39.4

— ChEMBL document CHEMBL5131517 (ACS Med Chem Lett, 2022)
